The target in experiment [1] is NDM-1 (Klebsiella pneumoniae, UniProt C7C422). Nature of the experiment: biochemical. Format: biochemical. To be noted: NDM-1 enzyme, CCF2-FA fluorescence assay; read-out: NDM-1 IC50.
Experiment [2] addresses IMP-1 (Serratia marcescens, UniProt P52699). Nature of the experiment: biochemical. Format: biochemical. To be noted: IMP-1 enzyme, CCF2-FA fluorescence assay; read-out: IMP-1 IC50.
The target in experiment [3] is VIM-1 (Pseudomonas aeruginosa (strain ATCC 15692 / DSM 22644 / CIP 104116 / JCM 14847 / LMG 12228 / 1C / PRS 101 / PAO1), UniProt A0A0F7KYQ8). Nature of the experiment: Enzyme activity: determination of IC50, fluorescence assay with CCF2-FA substrate (VIM-1). Type of experiment: biochemical. To be noted: CCF2-FA fluorescence assay.
In experiment [4] the test system is Escherichia coli expressing NDM-1 (CLB30005). Nature of the experiment: Antibiotic potentiation activity: synergistic concentration (MITC95) with imipenem, OD600 growth. Format: cell-based. To be noted: Escherichia coli expressing NDM-1 (CLB30005), 95% growth inhibition. In a few lines:
(§1)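 Spectrophotometric growth readings were taken following 22–24 h at 35 °C. Before that, organisms in 1.1× CAMHB were mixed with imipenem, used at 4 μg/ml in assay, and test compound.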

For experiment [5], the system named is Klebsiella pneumoniae expressing VIM-1 (IHMA599644). The description is as above. Format: cell-based. To be noted: Klebsiella pneumoniae expressing VIM-1 (IHMA599644), 95% growth inhibition. In a few lines: as §1
Experiment [6] concerns Serratia marcescens expressing IMP-1 (CL5741). The experiment is described as above. Type of experiment: cell-based. To be noted: Serratia marcescens expressing IMP-1 (CL5741), 95% growth inhibition. The gist of the method:
as §1

Setting [7] is: VIM-1 enzyme, read-out: VIM-1 IC50.

Like-named read-outs stand apart in the source and are kept apart here.

Broadly, the IC50 is the midpoint of a concentration-inhibition curve.

NDM-1, sequence (C7C422 whole entry, looked up, species assumed): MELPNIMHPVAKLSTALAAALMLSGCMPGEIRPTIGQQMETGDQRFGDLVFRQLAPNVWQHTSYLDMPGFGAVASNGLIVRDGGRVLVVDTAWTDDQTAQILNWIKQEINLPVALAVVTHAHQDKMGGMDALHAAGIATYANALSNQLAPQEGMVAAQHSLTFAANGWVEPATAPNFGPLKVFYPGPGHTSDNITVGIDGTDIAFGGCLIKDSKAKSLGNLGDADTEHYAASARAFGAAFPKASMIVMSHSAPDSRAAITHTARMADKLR
IMP-1, sequence (P52699 whole entry, looked up): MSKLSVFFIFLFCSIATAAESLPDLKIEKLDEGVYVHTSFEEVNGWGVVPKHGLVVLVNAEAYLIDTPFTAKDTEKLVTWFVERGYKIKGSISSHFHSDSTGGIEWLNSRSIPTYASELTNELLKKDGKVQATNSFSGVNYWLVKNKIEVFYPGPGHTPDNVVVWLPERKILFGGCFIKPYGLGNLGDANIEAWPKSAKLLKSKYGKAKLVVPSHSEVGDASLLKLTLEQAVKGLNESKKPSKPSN

In the case of `Cc1ccc(-c2cc(-c3cccc(C(N)=O)c3)cc(S(N)(=O)=O)c2-c2nn[nH]n2)cc1` [Example 295, 4″-methyl-5′-sulfamoyl-4′-(2H-tetrazol-5-yl)-[1,1′:3′,1″-terphenyl]-3-carboxamide], the half-maximal inhibitory concentration (IC50) worked out at 0.637 nM in experiment [1], 16.1 nM in experiment [2] and 126 nM in experiment [3] (setting [7]). The “Escherichia coli MITC95” value in experiment [4] stood at 1.953 µM. The “Klebsiella pneumoniae MITC95” value in experiment [5] is greater than 200 µM. The “Serratia marcescens MITC95” value in experiment [6] is 1.563 µM.

With `Cc1ccc(-c2cc(-c3ccc(C(N)=O)cc3)cc(S(N)(=O)=O)c2-c2nn[nH]n2)cc1` [Example 296, 4″-methyl-5′-sulfamoyl-4′-(2H-tetrazol-5-yl)-[1,1′:3′,1″-terphenyl]-4-carboxamide], the 50% inhibitory concentration (IC50) in experiment [1] came out at 0.637 nM; in experiment [2], 54.8 nM; in experiment [3] (setting [7]), 127 nM. Further, the “Escherichia coli MITC95” value in experiment [4] was 1.953 µM. Besides, the “Klebsiella pneumoniae MITC95” value in experiment [5] is greater than 200 µM. For the same compound, the “Serratia marcescens MITC95” value in experiment [6] is 3.125 µM.

With `NS(=O)(=O)c1cccc(C(=O)O)c1-c1nn[nH]n1` [Example 297, 3-Sulfamoyl-2-(2H-tetrazol-5-yl)benzoic acid], the figures for the IC50 in experiment [1], in experiment [2] and in experiment [3] (setting [7]) were 2480 nM, 20000 nM and 20000 nM, respectively. Also, in experiment [4], the “Escherichia coli MITC95” value was 12.5 µM. In addition, the “Klebsiella pneumoniae MITC95” value in experiment [5] is greater than 200 µM. For the same compound, in experiment [6], the “Serratia marcescens MITC95” value is greater than 200 µM.

As for `Cc1ccc(-c2cccc(S(N)(=O)=O)c2-c2nnn[nH]2)cn1` [Example 299, 3-(6-methylpyridin-3-yl)-2-(1H-tetrazol-5-yl)benzenesulfonamide], the IC50 in experiment [1] was 11.8 nM; in experiment [2] it was 444 nM; in experiment [3] (VIM-1 IC50, VIM-1 enzyme), 110 nM. Further, the “Escherichia coli MITC95” value in experiment [4] was 0.1953 µM. The “Klebsiella pneumoniae MITC95” value in experiment [5] came to 37.5 µM. For the same compound, the “Serratia marcescens MITC95” value in experiment [6] came to 18.75 µM.

`NCCc1ccc(-c2cccc(S(N)(=O)=O)c2-c2nnn[nH]2)cc1` [Example 300, 4′-(2-aminoethyl)-2-(1H-tetrazol-5-yl)-[1,1′-biphenyl]-3-sulfonamide]: the values for the IC50 in experiment [1], in experiment [2] and in experiment [3] (setting [7]) were 37.2 nM, 373 nM and 31.5 nM, respectively. The “Escherichia coli MITC95” value in experiment [4] was 1.172 µM. In experiment [5], the “Klebsiella pneumoniae MITC95” value was 9.375 µM. The “Serratia marcescens MITC95” value in experiment [6] was found to be 12.5 µM.

`Nc1ncc(-c2cccc(S(N)(=O)=O)c2-c2nnn[nH]2)cn1` [Example 301, 3-(2-aminopyrimidin-5-yl)-2-(1H-tetrazol-5-yl)benzenesulfonamide]: the 50% inhibitory concentration (IC50) in experiment [1] is 8.2 nM; in experiment [2], 1380 nM; in experiment [3] (setting [7]), 282 nM. The “Escherichia coli MITC95” value in experiment [4] stood at 0.7813 µM. Also, the “Klebsiella pneumoniae MITC95” value in experiment [5] worked out at 25 µM. Moreover, the “Serratia marcescens MITC95” value in experiment [6] was 37.5 µM.

For `CCCc1ccc(-c2cccc(S(N)(=O)=O)c2-c2nnn[nH]2)cn1` [Example 302, 3-(6-propylpyridin-3-yl)-2-(1H-tetrazol-5-yl)benzenesulfonamide], the values for the 50% inhibitory concentration (IC50) in experiment [1], in experiment [2] and in experiment [3] (setting [7]) were 5.85 nM, 110 nM and 38.5 nM, respectively. Further, in experiment [4], the “Escherichia coli MITC95” value came out at 0.3906 µM. For the same compound, in experiment [5], the “Klebsiella pneumoniae MITC95” value worked out at 150 µM. The “Serratia marcescens MITC95” value in experiment [6] turned out to be 3.906 µM.

Turning to `NC(=O)Cc1ccc(-c2cccc(S(N)(=O)=O)c2-c2nnn[nH]2)cc1` [Example 303, 2-(3′-sulfamoyl-2′-(1H-tetrazol-5-yl)-[1,1′-biphenyl]-4-yl)acetamide], the half-maximal inhibitory concentration (IC50) turned out to be 5.06 nM in experiment [1], 59 nM in experiment [2] and 44.6 nM in experiment [3] (setting [7]). Besides, the “Escherichia coli MITC95” value in experiment [4] was determined as 0.9766 µM. For the same compound, the “Klebsiella pneumoniae MITC95” value in experiment [5] was found to be 18.75 µM. Besides, the “Serratia marcescens MITC95” value in experiment [6] came to 2.344 µM.

Take `Cc1nc2ccccc2n1Cc1ccc(-c2cccc(S(N)(=O)=O)c2-c2nnn[nH]2)cc1` [Example 304, 4′-((2-methyl-1H-benzo[d]imidazol-1-yl)methyl)-2-(1H-tetrazol-5-yl)-[1,1′-biphenyl]-3-sulfonamide]: the values for the 50% inhibitory concentration (IC50) in experiment [1], in experiment [2] and in experiment [3] (setting [7]) were 29.2 nM, 50.3 nM and 103 nM, respectively. The “Escherichia coli MITC95” value in experiment [4] amounted to 6.25 µM. Further, the “Klebsiella pneumoniae MITC95” value in experiment [5] is greater than 200 µM. Moreover, in experiment [6], the “Serratia marcescens MITC95” value is 7.031 µM.

Take `NCCCc1ccc(-c2cccc(S(N)(=O)=O)c2-c2nnn[nH]2)cc1` [Example 305, 4′-(3-aminopropyl)-2-(1H-tetrazol-5-yl)-[1,1′-biphenyl]-3-sulfonamide]: the IC50 in experiment [1] is 50.2 nM; in experiment [2], 333 nM; in experiment [3] (VIM-1 IC50, VIM-1 enzyme), 103 nM. Also, the “Escherichia coli MITC95” value in experiment [4] worked out at 1.953 µM. Further, in experiment [5], the “Klebsiella pneumoniae MITC95” value stood at 18.75 µM. Moreover, the “Serratia marcescens MITC95” value in experiment [6] was 4.688 µM.

For `NCc1ccc(-c2cccc(S(N)(=O)=O)c2-c2nnn[nH]2)cn1` [Example 306, 3-(6-(aminomethyl)pyridin-3-yl)-2-(1H-tetrazol-5-yl)benzenesulfonamide], the half-inhibitory concentration (IC50) in experiment [1] was found to be 104 nM; in experiment [2], 3740 nM; in experiment [3] (setting [7]), 300 nM. For the same compound, the “Escherichia coli MITC95” value in experiment [4] is 1.172 µM. Further, in experiment [5], the “Klebsiella pneumoniae MITC95” value amounted to 25 µM. Further, the “Serratia marcescens MITC95” value in experiment [6] was 50 µM.

In the case of `NCCc1ccc(-c2cccc(S(N)(=O)=O)c2-c2nnn[nH]2)cn1` [Example 307, 3-(6-(2-aminoethyl)pyridin-3-yl)-2-(1H-tetrazol-5-yl)benzenesulfonamide], the IC50 in experiment [1] came out at 174 nM; in experiment [2], 4890 nM; in experiment [3] (setting [7]), 96.2 nM. Further, the “Escherichia coli MITC95” value in experiment [4] was 1.172 µM. The “Klebsiella pneumoniae MITC95” value in experiment [5] is 12.5 µM. In addition, the “Serratia marcescens MITC95” value in experiment [6] is 50 µM.

For `N#Cc1ccc(-c2cccc(S(N)(=O)=O)c2-c2nnn[nH]2)cc1` [Example 308, 4′-cyano-2-(1H-tetrazol-5-yl)-[1,1′-biphenyl]-3-sulfonamide], the concentration for half-maximal inhibition (IC50) in experiment [1] came to 11.3 nM; in experiment [2], 192 nM; in experiment [3] (VIM-1 IC50, VIM-1 enzyme), 164 nM. In addition, the “Escherichia coli MITC95” value in experiment [4] is 2.344 µM. In experiment [5], the “Klebsiella pneumoniae MITC95” value came to 75 µM. In addition, in experiment [6], the “Serratia marcescens MITC95” value was 9.375 µM.

As to `NS(=O)(=O)c1cccc(-c2ccc(C3(O)CNC3)cc2)c1-c1nn[nH]n1` [Example 315, 4′-(3-hydroxyazetidin-3-yl)-2-(2H-tetrazol-5-yl)-[1,1′-biphenyl]-3-sulfonamide], the IC50 was determined as 11.6 nM in experiment [1]; 510 nM in experiment [2]; 33.4 nM in experiment [3] (VIM-1 IC50, VIM-1 enzyme). The “Escherichia coli MITC95” value in experiment [4] stood at 0.3906 µM. Moreover, the “Klebsiella pneumoniae MITC95” value in experiment [5] was found to be 3.125 µM. For the same compound, the “Serratia marcescens MITC95” value in experiment [6] amounted to 4.688 µM.

For `NS(=O)(=O)c1cccc(-c2cnc(N3CCNCC3)nc2)c1-c1nn[nH]n1` [Example 320, 3-(2-(Piperazin-1-yl)pyrimidin-5-yl)-2-(2H-tetrazol-5-yl)benzenesulfonamide], the half-inhibitory concentration (IC50) in experiment [1] is 14.4 nM; in experiment [2] it was 294 nM; in experiment [3] (VIM-1 IC50, VIM-1 enzyme), 35.9 nM. Also, the “Escherichia coli MITC95” value in experiment [4] amounted to 0.6836 µM. In addition, the “Klebsiella pneumoniae MITC95” value in experiment [5] was 6.25 µM. Also, the “Serratia marcescens MITC95” value in experiment [6] turned out to be 9.375 µM.

Turning to `NS(=O)(=O)c1cccc(-c2ccc(C(O)CO)cc2)c1-c1nn[nH]n1` (stereo not drawn) [Example 321, 4′-(1,2-dihydroxyethyl)-2-(2H-tetrazol-5-yl)-[1,1′-biphenyl]-3-sulfonamide], the IC50 in experiment [1] is 19.2 nM; in experiment [2] it was 93.5 nM; in experiment [3] (VIM-1 IC50, VIM-1 enzyme), 199 nM. Further, the “Escherichia coli MITC95” value in experiment [4] is 1.563 µM. Besides, the “Klebsiella pneumoniae MITC95” value in experiment [5] turned out to be 50 µM. Further, the “Serratia marcescens MITC95” value in experiment [6] amounted to 6.25 µM.

Turning to `NS(=O)(=O)c1cccc(-c2ccc(N3CCCCC3)nc2)c1-c1nn[nH]n1` [Example 322, 3-(6-(piperidin-1-yl)pyridin-3-yl)-2-(2H-tetrazol-5-yl)benzenesulfonamide], the IC50 in experiment [1] was 36.5 nM; in experiment [2] it was 321 nM; in experiment [3] (setting [7]) it was 3650 nM. In addition, the “Escherichia coli MITC95” value in experiment [4] was found to be 7.813 µM. The “Klebsiella pneumoniae MITC95” value in experiment [5] amounted to 200 µM. In experiment [6], the “Serratia marcescens MITC95” value came out at 25 µM.

As to `NS(=O)(=O)c1cccc(-c2ccc(N3CCOCC3)nc2)c1-c1nn[nH]n1` [Example 323, 3-(6-morpholinopyridin-3-yl)-2-(2H-tetrazol-5-yl)benzenesulfonamide], the 50% inhibitory concentration (IC50) in experiment [1] amounted to 7.69 nM; in experiment [2], 70.6 nM; in experiment [3] (setting [7]), 151 nM. The “Escherichia coli MITC95” value in experiment [4] amounted to 2.344 µM. For the same compound, the “Klebsiella pneumoniae MITC95” value in experiment [5] is 200 µM. Also, the “Serratia marcescens MITC95” value in experiment [6] amounted to 12.5 µM.

As to `NS(=O)(=O)c1cccc(-c2ccc(N3CCNCC3)nc2)c1-c1nn[nH]n1` [Example 324, 3-(6-(piperazin-1-yl)pyridin-3-yl)-2-(2H-tetrazol-5-yl)benzenesulfonamide], the IC50 in experiment [1] worked out at 105 nM; in experiment [2] it was 1020 nM; in experiment [3] (setting [7]), 404 nM. Also, the “Escherichia coli MITC95” value in experiment [4] was 13.28 µM. Also, in experiment [5], the “Klebsiella pneumoniae MITC95” value worked out at 37.5 µM. In experiment [6], the “Serratia marcescens MITC95” value is 32.81 µM.

(Values after US9708336B2, “Metallo-beta-lactamase inhibitors” (priority 2014, dated 2017).)
